“Also recorded” adds a separate entry of the source. Peptide text beside a SMILES is read from it. * marks the point of attachment. Cbz = O=C(OCc1ccccc1)*
How the values were obtained:
[1] = test system: mouse liver; experiment: rAAV (AV.Alkphos) gene transfer in mouse liver in vivo, portal vein; parameters: species or system C57B6 mice
Description: FIG. 19. […] Recombinant AV.Alkphos (5×10^10 particles) was administered to mouse liver either as virus alone in PBS, virus in combination with 40 μM Z-LLL in PBS, or virus in combination with 200 μM LLnL in PBS. Virus was directly instilled into portal vein of the C57B6 mice. AAV-mediated alkaline phosphatase transgene expression was evaluated by histology staining at 2 and 4 weeks post-infection in frozen tissue sections. The average percentage of the alkphos positive cells in all 6 liver lobes of each individual animal was quantified by NIH image analysis software. The data represents the mean (+/−SEM) of 3 independent mice for each time point in each group.
Recombinant AV.Alkphos (5×10^10 particles) was also administered to mouse liver either as virus alone in PBS, virus in combination with 40 μM Z-LLL in PBS, or virus in combination with 20 μM LLnL in PBS. Virus was directly instilled into portal vein of the C57B6 mice. AAV-mediated alkaline phosphatase transgene expression was evaluated by histology staining at 2 and 4 weeks post infection in frozen tissue sections ([…]).

[2] = test system: polarized human airway epithelia; experiment: In situ localization of S35-labeled rAAV particles (photoemulsion, morphometry); assay type: cell-based; conditions: 2 hours post-infection, apical or basolateral infection
Description: FIG. 13. In situ localization of rAAV in the polarized airway epithelia using S^35 labeled virus. Polarized human airway epithelia were infected with S^35-labeled virus (MOI=50,000 particles/cell) from either the apical or basolateral side (+/−LLnL). At 2 hours post-infection, transwells were washed with media three times and fixed in 4% paraformaldehyde overnight prior to cryoprotection in sucrose and OCT embedding. 10 μm frozen sections were overlaid with photoemulsion and developed after 5 weeks of exposure. Panel A depicts the typical localization pattern following basolateral infection in the presence of LLnL. Arrows indicate nuclear-associated virus. Panel B presents enlargements of boxed regions in Panel A. Blinded morphometric quantification was performed by counting the number of nuclear-associated and cytoplasmic radioactive grains of 10 random fields, as shown in Panel A. A total of 60 cells was quantitated per field, to give a total of 600 cells per sample and 2400 cells per condition. Results in Panel C are the mean +/−SEM of four independent samples for each condition.
Cryosections of polarized airway epithelial cells infected with ^35S-labeled AV.GFP3ori (MOI=50,000 particles/cell) from the apical or basolateral sides in the presence or absence of LLnL were overlaid with photographic emulsion and exposed for 5 weeks prior to developing. […]

[3] = test system: polarized human bronchial epithelia; experiment: S35-labeled rAAV binding/entry assay in polarized bronchial epithelia; assay type: cell-based
Description: FIGS. 12A and 12B. Binding and uptake of S^35-labeled AV.GFP3ori in fully differentiated human bronchial epithelia. The ability of polarized bronchial epithelia to bind and internalize virus from the apical or the basolateral surfaces was quantified using S^35-labeled rAAV. The binding assay was performed after incubation with virus at 4° C. for 1 hour, followed by repeated washing in PBS. The combined bound and internalized virus was quantified following incubation with virus at 4° C. for 1 hour, and subsequent incubation at 37° C. for 2 hours and 24 hours. Non-specific background binding of radiolabeled virus was determined in parallel studies on collagen coated empty chambers not seeded with bronchial cells. Background counts (averaging 15.67+/−5.17 cpm/well) were subtracted from experimental sample counts prior to analysis. Data in the right side of each figure is presented as the net cpms of bound/internalized virus (raw counts minus background counts of empty transwells). The results represent the mean (+/−SEM) of 6 independent transwells for each condition. Experiments were performed in triplicate from two independent tissue samples. The significance of the differences between each pair of samples (with or without LLnL) was evaluated using the Student's t-test and p-values are provided in brackets above the data for each condition. To correlate uptake of radioactive virus with the functional expression the rAAV encoded transgene, GFP expression from the same set of samples was quantified at 24 hour post-infection by indirect fluorescent microscopy. […]
Viral binding/entry assays and in situ localization of viral particles. […] Combined binding/entry of rAAV into differentiated airway epithelia was measured under the same conditions, except that the cultures were incubated at 37° C. for an additional 2–24 hours before they were harvested. […] After washing three times in PBS, cells were lysed in situ by the addition of 5 ml of liquid scintillation cocktail at room temperature for 5 minutes, and the radioactivity was quantitated in a scintillation counter.

Compound	AAV-mediated gene transfer in mouse liver, in words ([1]; 40 μM Z-LLL co-administered, 2 and 4 weeks)	increase in rAAV transduction in the liver ([1]; 1 month post-infection) [fold]	intracellular distribution of radiolabeled rAAV particles (nuclear vs cytoplasmic grains) [2]	uptake of S35 labeled rAAV ([3]; 2 hour infection period at 37° C.)	amount of intracellular radioactivity ([3]; 24 hours post-infection, either surface infected)	4° C. rAAV binding ([3]; S35 labeled rAAV, with or without LLnL)
CC(C)C[C@@H](C=O)NC(=O)[C@H](CC(C)C)NC(=O)[C@H](CC(C)C)NC(=O)OCc1ccccc1 [Z-LLL, N-carbobenzoxyl-L-leucinyl-L-leucinyl-L-leucinal] (Cbz-Leu-Leu-Leu-aldehyde)	enhances AAV-mediated gene transfer	7	–	–	–	–
N-acetyl-L-leucinyl-L-leucinal-L-norleucinal [LLnL]	–	–	significant increase in nuclear trafficking; also recorded: significant shift to nuclear associated grains	not altered	very significant decrease	no significant effect

— patent US7122335B1, “Compounds and methods to enhance rAAV transduction” (priority 1999, dated 2006)
